# Experimental data: ChEMBL document CHEMBL1124359, “Quantitative structure-activity relationships in dihydropteroate synthase inhibition by multisubstituted sulfones. Design and synthesis of some new derivatives with improved potency” (J Med Chem, 1989)
# Several values for one entry are separate records, joined by “and”; a condition that tells them apart may be missing. Identical values can stand only once.
# Assays:
# Escherichia coli [1] = test: Inhibitory activity (Enzyme inhibition index) against dihydropteroate synthase from Escherichia coli.
# Escherichia coli [2] = test: Inhibitory activity (apE=log(1/EII50)) against dihydropteroate synthase from Escherichia coli
EII50 (Escherichia coli [1]),apE (Escherichia coli [2]),Structure (SMILES)
2.24,-0.35,Nc1ccc(S(=O)(=O)c2ccc(Cl)cc2Cl)cc1
1.59,-0.2,Nc1ccc(S(=O)(=O)c2ccc(N)cc2N)cc1
3.31,-0.52,Nc1ccc(S(=O)(=O)c2c(Cl)cc(Cl)cc2Cl)cc1
3.02,-0.48,COc1cc(C)cc(C)c1S(=O)(=O)c1ccc(N)cc1
0.51 and 0.25,0.29 and 0.59,Cc1cc(O)cc(C)c1S(=O)(=O)c1ccc(N)cc1
0.26,0.59 and 0.58,Nc1ccc(S(=O)(=O)c2ccc(O)cc2Cl)cc1
1.77,-0.25,COc1cc(C)c(S(=O)(=O)c2ccc(N)cc2)c(C)c1
1.69,-0.23,Cc1cc(C)c(S(=O)(=O)c2ccc(N)cc2)c(C)c1
0.23 and 0.34,0.66 and 0.47,Cc1cc(O)ccc1S(=O)(=O)c1ccc(N)cc1
1.89,-0.28,Cc1ccc(S(=O)(=O)c2ccc(N)cc2)c(C)c1
1.91 and 1.46,–,Nc1ccc(S(=O)(=O)c2c(O)cc(O)cc2O)cc1
36.3,-1.56,Nc1ccc(S(=O)(=O)c2ccc([N+](=O)[O-])cc2[N+](=O)[O-])cc1
2.64,-0.42,Nc1ccc(S(=O)(=O)c2ccc(N)cc2)cc1
0.51 and 0.71,0.29 and 0.15,Nc1ccc(S(=O)(=O)c2ccc(O)cc2O)cc1
1.77,-0.25,COc1ccc(S(=O)(=O)c2ccc(N)cc2)c(C)c1
12.9,-1.11,COc1cc(OC)c(S(=O)(=O)c2ccc(N)cc2)c(OC)c1
3.21,-0.51,COc1ccc(S(=O)(=O)c2ccc(N)cc2)c(OC)c1
